Laboratory results from PMC9910343 (ACS chemical neuroscience, 2022).
Several values for one entry are separate records, joined by “and”; a condition that tells them apart may be missing. Equal entries are not always repeated.

Experiments:
[1] = Plasma and CSF pharmacokinetics after s.c. or i.v. administration; assay type: in vivo, rhesus monkeys; settings: for Cmax of metabolite hydroxyvarenicline / AUC of metabolite hydroxyvarenicline: mean
[2] = system: neurons expressing PSAM-GlyRs; settings: systemic administration; rhesus monkeys; cited from earlier work
[3] = rats; based on the unbound fraction; cited from earlier work
[4] = after uPSEM817 0.064 mg/kg i.v., CSF
[5] = after uPSEM817 0.064 mg/kg i.v., plasma
[6] = after uPSEM817 0.064 mg/kg s.c., plasma

Compound: O=c1cnc2cc3c(cc2[nH]1)C1CNCC3C1 (stereo not drawn) [hydroxyvarenicline]
- Tmax of metabolite hydroxyvarenicline [1, 4]: 1.5 h
- Cmax of metabolite hydroxyvarenicline [1, 4]: 0.05 ng/mL
- Tmax of metabolite hydroxyvarenicline [1, 5]: 3 h
- AUC of metabolite hydroxyvarenicline [1, 5]: 1.161 ng·h/mL
- Cmax of metabolite hydroxyvarenicline [1, 5]: 0.87 ng/mL and 0.874 ng/mL
- Tmax of metabolite hydroxyvarenicline [1, 6]: 1 h
- AUC of metabolite hydroxyvarenicline [1, 6]: 0.556 ng·h/mL
- Cmax of metabolite hydroxyvarenicline [1, 6]: 0.55 ng/mL and 0.553 ng/mL
- detection of hydroxyvarenicline as metabolite in CSF ([1]; after uPSEM817 0.064 mg/kg, CSF): only detected in a single CSF sample for one animal

Compound: c1cnc2cc3c(cc2n1)[C@@H]1CNC[C@H]3C1 [varenicline]
- detection of varenicline as metabolite in plasma or CSF ([1]; after uPSEM817 0.064 mg/kg s.c. or i.v.): not detected
- neuronal activity in neurons expressing PSAM-GlyRs [2]: reduces neuronal activity
- CSF:plasma ratio [3]: 1.25
